Results from patent publication US20240285631A1, “METHODS OF TREATING VASCULAR MALFORMATIONS” (priority 2023, published 2024).

What was measured:
[1] = test system: retinal ECs of BMP9/10 Abs-treated Fucci2 animals; assay: Endothelial cell cycle state in BMP9/10 Abs-treated Fucci2 reporter pups; assay type: in vivo, mouse; details: BMP9/10 Abs + CDK4/6i, P7 Fucci2
From the text: All animal protocols and procedures were approved by the University of Virginia Animal Care and Use Committee and complied with all ethical regulations. Cdh5Cre^ERT21Rha^43 and Alk1^flox/flox were gifted from Drs. Ralf Adams and Paul Oh, respectively. R26p-Fucci2 (Fucci2) (Accession #CDB0203T)^44 and C57bl/6 mice were purchased from Riken and Jax, respectively. Cdh5Cre^ERT2 mice were crossed with Alk1^flox/flox mice (6-8-week-old) to generate Alk1EC^iKO pups. Cre activity in Alk1EC^iKO was induced in pups at P3 via a single intraperitoneal (i.p.) injection of Tamoxifen (Tx; Sigma T5648, […] of 4 mg/ml, resuspended in 10% ethanol and 90% corn oil). Alk1^flox/flox littermates were used as controls. Alk1EC^iKO mice were crossed with Fucci2 mice to generate Alk1EC^iKO-Fucci2 pups.

[2] = test system: human umbilical vein endothelial cells; assay: Proliferation of human umbilical vein endothelial cells assessed by EdU uptake; assay type: cell-based; details: in vitro, dose response
From the text: FIG. 16 illustrates palbociclib, CVT-313 and ribociclib dose response effects on proliferation of human umbilical vein endothelial cells assessed by EdU uptake.
This example discusses that endothelial cell cycle dysregulation is a mechanism involved in the development of arterio-venous malformations in HHT, as well as other types of vascular malformations named above. Palbociclib, a FDA-approved cell cycle inhibitor, could be used to prevent arterio-venous and other malformations, including venous, capillary, lymphatic and cerebral cavernous malformations.

VEGF-A signaling = assay: Western Blot of VEGF-A-induced signaling in HUVECs; assay type: cell-based, human; details: Palbociclib pre-treatment 24 h, 15-minute VEGF-A stimulation
Method: FIG. 8A illustrates Western Blot analysis of the phosphorylation of the indicated proteins in response to VEGF-A (1.5 nM) in control vs. CDK4/6i treated HUVECs. FIG. 8B illustrates Western Blot analysis of the phosphorylation of the indicated proteins in response to BMP9 (10 ng/ml) in control vs. CDK4/6i-treated HUVECs. FIG. 8C illustrates quantification of phosphorylation normalized to total protein levels. (N=5 independent experiments, Data are mean±SEM, Mann-Whitney U test: *p<0.05). […] FIG. 8E illustrates ENDOGLIN (green) and IB4 (white) staining of retinal flat-mounts from P5 Alk1^fl/fl, Alk1^fl/fl treated with CDK4/6i, Alk1EC^iKO, and Alk1EC^iKO treated with CDK4/6i animals (A: Artery; V: Vein). FIG. 8F illustrates quantification of fluorescence intensity of ENDOGLIN staining in (FIG. 8E) retinal venous vessels of the indicated animals (N=4 retinas per group. Data are mean±SEM, one-way ANOVA with Tukey's multiple comparison test: *p<0.05; ns p>0.05). FIG. 8G illustrates timeline used for Tx injection, and CDK4/6i and FLT1 blocking antibody treatment of Alk1EC^iKO pups. […]
Next, we treated HUVECs with Alk1 siRNA to silence Alk1 and test the VEGF-A-induced response, with or without Palbociclib treatment, using pAKT activation as a readout.

[3] = test system: vascular malformations in Alk1EC^iKO pups; assay: Blue latex dye vascular perfusion of brain, lungs and intestinal tract in Alk1EC^iKO pups; assay type: in vivo, mouse
From the text: FIG. 5A illustrates a timeline used for tamoxifen (Tx) injection and CDK4/6i treatment of Alk1EC^iKO pups. FIG. 5B illustrates representative images showing retinal vasculature labelled with IB4 from control, Alk1EC^iKO, and Alk1EC^iKO+CDK4/6i-treated P5 animals. Bar graphs showing (FIG. 5C) quantification of AV shunt number per retina, (FIG. 5D) vascular density, and (FIG. 5E) vascular progression. (N=8 to 10 retinas/group, at least 4 mice). Data are mean±SEM, One-way ANOVA, *p≤0.05, **p≤0.01). FIG. 5F illustrates a timeline used for Tx injection and CDK4/6i treatment of Alk1EC^iKO pups for blue latex dye perfusion experiments. FIG. 5G illustrates blue latex dye vascular perfusion in brains from control, Alk1EC^iKO, and Alk1EC^iKO+CDK4/6i-treated P7 animals. […] FIG. 5H illustrates the quantification of left middle cerebral artery (MCA) and basilar artery (BA) in control, Alk1EC^iKO, and Alk1EC^iKO+CDK4/6i-treated animals. FIG. 5I illustrates the quantification of the number of latex filled veins in control, Alk1EC^iKO, and Alk1EC^iKO+CDK4/6i-treated animals. (N=4 to 6 mice/group. Data are mean±SEM, one-way ANOVA with Holm-Šidàk's multiple comparison test, *p≤0.05, **p≤0.01, ***p<0.001). Scale bar (G): 4 mm.
About 50% of HHT patients harbor mutations in the Acvrl1 gene^1, which encodes for the ALK1 receptor. To validate the clinical relevance of the use of Palbociclib for the treatment of HHT, we crossed Cdh5Cre^ERT2 mice with Alk1^flox/flox mice (6-8-week-old) to generate an endothelial-specific inducible deletion of Alk1 (referred to as Alk1EC^iKO), which is an established preclinical mouse model of human HHT type 2^12,25. Neonatal Alk1EC^iKO pups received a single i.p. injection of tamoxifen at P3 to induce Alk1 gene deletion and were then treated with Palbociclib via oral gavage at P4, and their retinal vasculature was analyzed at P5 (FIG. 5A). […] Due to the relatively short survival time post-tamoxifen induction in Alk1EC^iKO mice (approximately 48 hours), our study is limited to a single Palbociclib injection, which represents a technical challenge in exploring additional treatments. […] Single Cell RNA sequencing analysis of Palbociclib effects on endothelial arteriovenous identity in Alk1EC^iKO mice.

CC(=O)c1c(C)c2cnc(Nc3ccc(N4CCNCC4)cn3)nc2n(C2CCCC2)c1=O [Palbociclib, 6-acetyl-8-cyclopentyl-5-methyl-2-[5-(1-piperazinyl)pyridine-2-ylamino]pyrido[2,3-d]pyrimidin-7(8H)-one]
EC cell cycle state (early G1, late G1, S/G2/M) in veins, arteries and capillaries [1]: predominantly in late G1 state
vascular malformations in retina of Fucci2 pups [1]: vascular malformations were absent
EC proliferation assessed by EdU uptake [2]: inhibit EC proliferation
pAKT activation in response to VEGF-A (VEGF-A signaling): significantly decreased
pERK1/2 activation in response to VEGF-A (VEGF-A signaling): significantly decreased
veins filled with blue latex (arteriovenous shunts) in the intestinal tract ([3]; P7, gastrointestinal tract): absent
diameter of the basilar and middle cerebral arteries ([3]; brain, single dose of Palbociclib at P4): trend toward normalization
number of latex-filled veins in brain ([3]; brain, vs untreated Alk1EC^iKO): significantly reduced
latex blue dye extravasation across the intrapulmonary bed ([3]; lungs): dye extravasation was reduced
